The test system of experiment [1] is HeLa human cervical tumor cells. Description: HeLa cell proliferation assay (crystal violet staining). In kind it is cell-based. To be noted: 96 h, 4 days incubation, read-out: Inhibition of cell proliferation, cell Line: HeLa IC50. On the procedure: Cultivated tumor cells (MCF7, hormone dependent human mammary carcinoma cells, ATCC HTB22; NCI-H460, human non-small cell lung carcinoma cells, ATCC HTB-177; DU 145, hormone-independent human prostate carcinoma cells, ATCC HTB-81; HeLa-MaTu, human cervical carcinoma cells, EPO-GmbH, Berlin; HeLa-MaTu-ADR, multidrug-resistant human cervical carcinoma cells, EPO-GmbH, Berlin; HeLa human cervical tumor cells, ATCC CCL-2; B16F10 mouse melanoma cells, ATCC CRL-6475) were plated at a density of 5000 cells/well (MCF7, DU145, HeLa-MaTu-ADR), 3000 cells/well (NCI-H460, HeLa-MaTu, HeLa), or 1000 cells/well (B16F10) in a 96-well multititer plate in 200 μl of their respective growth medium supplemented 10% fetal calf serum. After 24 hours, the cells of one plate (zero-point plate) were stained with crystal violet (see below), while the medium of the other plates was replaced by fresh culture medium (200 μl), to which the test substances were added in various concentrations (0 μM, as well as in the range of 0.01-30 μM; the final concentration of the solvent dimethyl sulfoxide was 0.5%). The cells were incubated for 4 days in the presence of test substances. Cell proliferation was determined by staining the cells with crystal violet: the cells were fixed by adding 20 μl/measuring point of an 11% glutaric aldehyde solution for 15 minutes at room temperature. After three washing cycles of the fixed cells with water, the plates were dried at room temperature. The cells were stained by adding 100 μl/measuring point of a 0.1% crystal violet solution (pH 3.0). After three washing cycles of the stained cells with water, the plates were dried at room temperature. The dye was dissolved by adding 100 μl/measuring point of a 10% acetic acid solution. The extinction was determined by photometry at a wavelength of 595 nm. The change of cell number, in percent, was calculated by normalization of the measured values to the extinction values of the zero-point plate (=0%) and the extinction of the untreated (0 μm) cells (=100%). The IC50 values were determined by means of a 4 parameter fit using the company's own software.
The compounds of the present invention are characterized by the following IC50 values, determined in a HeLa cell proliferation assay (as described above): […]

The target of another experiment is T1, human kinase Mps-1 (Homo sapiens, UniProt P33981).
T1 construct: N-terminally GST-tagged human full length recombinant Mps-1 kinase; purchased Invitrogen, Karslruhe, Germany PV4071
T1 sequence (P33981 1-857): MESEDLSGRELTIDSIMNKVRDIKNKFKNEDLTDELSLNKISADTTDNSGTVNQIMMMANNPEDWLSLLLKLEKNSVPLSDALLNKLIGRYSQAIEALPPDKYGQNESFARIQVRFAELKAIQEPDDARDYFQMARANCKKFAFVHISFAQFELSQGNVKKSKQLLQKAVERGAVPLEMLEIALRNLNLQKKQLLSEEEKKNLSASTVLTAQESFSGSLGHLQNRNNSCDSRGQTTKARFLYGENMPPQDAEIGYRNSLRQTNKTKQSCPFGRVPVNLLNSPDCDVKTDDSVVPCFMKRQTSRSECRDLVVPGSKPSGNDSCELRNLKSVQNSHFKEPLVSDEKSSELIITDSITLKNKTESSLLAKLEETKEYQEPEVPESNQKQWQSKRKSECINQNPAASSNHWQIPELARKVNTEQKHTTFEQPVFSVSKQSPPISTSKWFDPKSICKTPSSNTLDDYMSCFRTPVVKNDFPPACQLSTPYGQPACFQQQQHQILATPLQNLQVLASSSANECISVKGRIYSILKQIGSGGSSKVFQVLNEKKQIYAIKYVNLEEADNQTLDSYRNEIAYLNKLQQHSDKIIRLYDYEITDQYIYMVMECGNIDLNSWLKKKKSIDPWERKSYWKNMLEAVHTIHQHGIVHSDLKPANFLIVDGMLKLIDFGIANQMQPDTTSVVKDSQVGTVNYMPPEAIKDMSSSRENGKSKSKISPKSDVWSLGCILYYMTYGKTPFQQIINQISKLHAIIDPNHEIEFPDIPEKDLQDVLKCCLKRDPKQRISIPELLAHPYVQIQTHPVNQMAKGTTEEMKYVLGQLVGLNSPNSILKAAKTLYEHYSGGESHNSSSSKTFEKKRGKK
The experiment can be described thus: Mps-1 kinase assay (TR-FRET, 10 μM ATP). In kind it is biochemical. To be noted: N-terminally GST-tagged human full length recombinant Mps-1, read-out: Mps-1 Inhibition, IC50 (Assay with 10 μM ATP). As for the experimental part:
The human kinase Mps-1 phosphorylates a biotinylated substrate peptide. Detection of the phosphorylated product is achieved by time-resolved fluorescence resonance energy transfer (TR-FRET) from Europium-labelled anti-phospho-Serine/Threonine antibody as donor to streptavidin Labelled with cross-linked allophycocyanin (SA-XLent) as acceptor. Compounds are tested for their inhibition of the kinase activity.
N-terminally GST-tagged human full length recombinant Mps-1 kinase (purchased from Invitrogen, Karslruhe, Germany, cat. no PV4071) was used. As substrate for the kinase reaction a biotinylated peptide of the amino-acid sequence PWDPDDADITEILG (C-terminus in amide form, purchased from Biosynthan GmbH, Berlin) was used.
For the assay 50 nl of a 100-fold concentrated solution of the test compound in DMSO was pipetted into a black low volume 384 well microtiter plate (Greiner Bio-One, Frickenhausen, Germany), 2 μl of a solution of Mps-1 in assay buffer [0.1 mM sodium-ortho-vanadate, 10 mM MgCl2, 2 mM DTT, 25 mM Hepes pH 7.7, 0.05% BSA, 0.001% Pluronic F-127] were added and the mixture was incubated for 15 min at 22° C. to allow pre-binding of the test compounds to Mps-1 before the start of the kinase reaction. Then the kinase reaction was started by the addition of 3 μl of a solution of […] (ATP, 16.7 μM=>final conc. in the 5 μl assay volume is 10 μM) and peptide substrate (1.67 μM=>final conc. in the 5 μl assay volume is 1 μM) in assay buffer and the resulting mixture was incubated for a reaction time of 60 min at 22° C. The concentration of Mps-1 in the assay was adjusted to the activity of the enzyme lot and was chosen appropriate to have the assay in the linear range, typical enzyme concentrations were in the range of about 1 nM (final conc. in the 5 μl assay volume). The reaction was stopped by the addition of 3 μl of a solution of HTRF detection reagents (100 mM Hepes pH 7.4, 0.1% BSA, 40 mM EDTA, 140 nM Streptavidin-XLent [#61GSTXLB, Fa. Cis Biointernational, Marcoule, France], 1.5 nM anti-phospho(Ser/Thr)-Europium-antibody [#AD0180, PerkinElmer LAS, Rodgau-Jügesheim, Germany].
The resulting mixture was incubated 1 h at 22° C. to allow the binding of the phosphorylated peptide to the anti-phospho(Ser/Thr)-Europium-antibody. Subsequently the amount of phosphorylated substrate was evaluated by measurement of the resonance energy transfer from the Europium-labelled anti-phospho(Ser/Thr) antibody to the Streptavidin-XLent. Therefore, the fluorescence emissions at 620 nm and 665 nm after excitation at 350 nm was measured in a Viewlux TR-FRET reader (PerkinElmer LAS, Rodgau-Jügesheim, Germany). The “blank-corrected normalized ratio” (a Viewlux specific readout, similar to the traditional ratio of the emissions at 665 nm and at 622 nm, in which blank and Eu-donor crosstalk are subtracted from the 665 nm signal before the ratio is calculated) was taken as the measure for the amount of phosphorylated substrate. The data were normalised (enzyme reaction without inhibitor=0% inhibition, all other assay components but no enzyme=100% inhibition).

Structures are written as SMILES. A value given as a limit tells only on which side of the number the result lay.

As for `COc1cc(S(C)(=O)=O)ccc1Nc1nc2cc(-c3ccc(NC(=O)[C@H](C)c4ccc(F)cc4)cc3)ccn2n1` [Example 5.1, (2R)-2-(4-fluorophenyl)-N-[4-(2-{[2-methoxy-4-(methylsulfonyl)phenyl]amino}[1,2,4]triazolo[1,5-a]pyridin-7-yl)phenyl]propanamide], the results for the IC50 (in experiment [1]; at human kinase Mps-1) were 0.118 µM and at most 0.001 µM, respectively.
Turning to `COc1cc(C(=O)N2CC(F)C2)ccc1Nc1nc2cc(-c3ccc(NC(=O)[C@H](C)c4ccc(F)cc4)cc3)ccn2n1` [Example 5.2, (2R)—N-{4-[2-({4-[(3-fluoroazetidin-1-yl)carbonyl]-2-methoxyphenyl}amino)[1,2,4]triazolo[1,5-a]pyridin-7-yl]phenyl}-2-(4-fluorophenyl)propanamide], the IC50 in experiment [1] was 0.024 µM; at human kinase Mps-1, at most 0.001 µM.
With `C[C@@H](C(=O)Nc1ccc(-c2ccn3nc(Nc4ccc(C(=O)N5CC(F)C5)cc4OCC(F)(F)F)nc3c2)cc1)c1ccc(F)cc1` [Example 5.3, (2R)—N-{4-[2-({4-[(3-fluoroazetidin-1-yl)carbonyl]-2-(2,2,2-trifluoroethoxy)phenyl}amino)[1,2,4]triazolo[1,5-a]pyridin-7-yl]phenyl}-2-(4-fluorophenyl)propanamide], the IC50 in experiment [1] was 0.013 µM; on human kinase Mps-1, at most 0.001 µM.
With `C[C@@H](C(=O)Nc1ccc(-c2ccn3nc(Nc4ccc(S(C)(=O)=O)cc4OCC(F)(F)F)nc3c2)cc1)c1ccc(F)cc1` [Example 5.5, (2R)-2-(4-fluorophenyl)-N-[4-(2-{[4-(methylsulfonyl)-2-(2,2,2-trifluoroethoxy)phenyl]amino}[1,2,4]triazolo[1,5-a]pyridin-7-yl)phenyl]propanamide], the values for the IC50 (in experiment [1]; on human kinase Mps-1) were 0.082 µM and at most 0.001 µM, respectively.
For the molecule `COc1cc(C(=O)N2CCC2)ccc1Nc1nc2cc(-c3ccc(NC(=O)[C@H](C)c4ccc(F)cc4)cc3)ccn2n1` [Example 5.6, (2R)—N-[4-(2-{[4-(azetidin-1-ylcarbonyl)-2-methoxyphenyl]amino}[1,2,4]triazolo[1,5-a]pyridin-7-yl)phenyl]-2-(4-fluorophenyl)propanamide], the IC50 in experiment [1] was 0.057 µM; at human kinase Mps-1, at most 0.001 µM.
In the case of `COc1cc(S(C)(=O)=O)ccc1Nc1cn2nc(-c3ccc(NC(=O)[C@H](C)c4ccc(F)cc4)cc3)ccc2n1` [Example 6.1, (2R)-2-(4-fluorophenyl)-N-[4-(2-{[2-methoxy-4-(methylsulfonyl)phenyl]amino}imidazo[1,2-b]pyridazin-6-yl)phenyl]propanamide], the IC50 in experiment [1] was 0.501 µM; at human kinase Mps-1 it was at most 0.001 µM.
In the case of `COc1cc(S(C)(=O)=O)cnc1Nc1cn2cc(-c3ccc(NC(=O)[C@H](C)c4ccc(F)cc4)cc3)ccc2n1` [Example 7.1, (2R)-2-(4-fluorophenyl)-N-[4-(2-{[3-methoxy-5-(methylsulfonyl)pyridin-2-yl]amino}imidazo[1,2-a]pyridin-6-yl)phenyl]propanamide], on human kinase Mps-1, the IC50 is at most 0.001 µM.
